Results reported in ChEMBL document CHEMBL1201862, “PubChem BioAssay data set” (2004).
Activity calls are given as the source filed them.

Tests used:
[1] = biological target: T1, Small ubiquitin-related modifier 1 (Homo sapiens, UniProt P63165); experiment: SUMO1 protein interaction blockers, potency – biochemical, fluorescence polarization, uHTS hits, dose response (AID 624382); assay type: functional; conditions: read-out: IC50_Mean
[2] = biological target: T1, Small ubiquitin-related modifier 1; experiment: SUMO1 protein-protein binding blockers, potency – biochemical, FRET, dose response (AID 624383); assay type: functional; conditions: read-out: IC50_Mean
[3] = blockers of HIV-1 envelope-mediated cell-cell fusion – cherry-pick, dose response (AID 652057); assay type: functional, cell-based
[4] = viability loss in CEM21 cells – cell-based, CellTiter-Glo luminescence, cherry-picked, cytotoxicity control for viral fusion inhibitor project, dose response (AID 652042); assay type: functional;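 note: potency for signal decrease meaning cytotoxicity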
[5] = blockers of HIV-1 ZM109 envelope-driven cell-cell fusion – HeLa effector, CEM target cells, luciferase, cherry-pick, dose response (AID 652058); assay type: functional, cell-based;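 note: luciferase signal from HIV-1 Env mediated cell-cell fusion of effector and target cells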
[6] = HIV-1 AD8 envelope cell-cell fusion blockers – cherry-pick, dose response (AID 652062); assay type: functional, cell-based;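 note: luciferase signal from cell-cell fusion driven by HIV-1 clade B AD8 Env; potency is for inhibitors of fusion seen as a drop in luminescence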
[7] = test system: P388/ADR; experiment: cells; assay type: functional; conditions: Mus musculus
[8] = test system: SN12K1; experiment: cells; assay type: functional; conditions: Homo sapiens
[9] = test system: P388; experiment: cells; assay type: functional; conditions: Mus musculus
[10] = biological target: Beta-galactosidase (Escherichia coli, UniProt Q8VNN2); experiment: PubChem AID 485352; assay type: functional
[11] = biological target: T2, Type-1 angiotensin II receptor (Homo sapiens, UniProt P30556); experiment: antagonism of angiotensin II type 1 receptor – cell-based, uHTS hits, selectivity assay for APJ receptor antagonist project, dose response (AID 463214); assay type: functional;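 note: antagonist potency against angiotensin II stimulated AT1 response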
T2 sequence (P30556 whole entry): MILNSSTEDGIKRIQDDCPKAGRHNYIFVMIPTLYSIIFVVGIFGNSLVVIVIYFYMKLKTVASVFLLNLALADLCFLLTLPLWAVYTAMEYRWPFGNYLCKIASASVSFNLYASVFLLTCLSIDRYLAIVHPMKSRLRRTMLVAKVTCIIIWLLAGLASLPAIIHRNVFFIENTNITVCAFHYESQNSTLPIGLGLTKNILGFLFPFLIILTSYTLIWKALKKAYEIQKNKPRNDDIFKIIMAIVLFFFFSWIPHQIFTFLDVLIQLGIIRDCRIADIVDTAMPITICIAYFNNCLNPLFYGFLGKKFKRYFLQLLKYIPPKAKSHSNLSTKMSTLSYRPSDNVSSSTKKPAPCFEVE

[12] = biological target: Nonstructural protein 1 (Influenza A virus, UniProt Q194T2); assay type: functional, Influenza A virus (A/California/07/2009(H1N1))
[13] = biological target: Heat shock protein HSP 90-alpha (Homo sapiens, UniProt P07900); assay type: functional, organism-based
[14] = test system: Vero; experiment: cells; assay type: functional; conditions: Chlorocebus sabaeus
[15] = biological target: Melanocortin receptor 4 (Homo sapiens, UniProt P32245); experiment: inhibitors of MC4R cAMP signaling – cell-based, TR-FRET, biased antagonists, dose response (AID 602298); assay type: functional;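 note: antagonist potency against agonist-stimulated cAMP production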
[16] = cAMP pathway inhibition in counterscreen cell line – TR-FRET cAMP detection, counter-screen for MC4R biased antagonist project, dose response (AID 602305); assay type: functional, cell-based;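 note: U2OS cells stimulated with forskolin near its EC80 as the cAMP inducer; potency is for inhibition of forskolin-stimulated cAMP signaling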
[17] = biological target: T3, Probable nicotinate-nucleotide adenylyltransferase (Staphylococcus aureus (strain N315), UniProt P65502); assay type: functional, Staphylococcus aureus subsp. aureus N315;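 for IC50 Mean: confirmatory dose-response retesting of NadD inhibitor hits first found in an ultra-high-throughput screen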
[18] = biological target: T3, Probable nicotinate-nucleotide adenylyltransferase; assay type: functional, Staphylococcus aureus subsp. aureus N315; conditions: read-out: IC50_Mean
[19] = viability loss in HeLa cells – cytotoxicity control for MgcRacGAP inhibitor project, dose response (AID 624300); assay type: functional
[20] = biological target: T4, Rac GTPase-activating protein 1 (Homo sapiens, UniProt Q9H0H5); experiment: blockers of MgcRacGAP-driven Rac1 GTP hydrolysis – biochemical, ADP Hunter fluorescence, primary and confirmatory, confirmation (AID 624330); assay type: functional
T4 sequence (Q9H0H5 whole entry): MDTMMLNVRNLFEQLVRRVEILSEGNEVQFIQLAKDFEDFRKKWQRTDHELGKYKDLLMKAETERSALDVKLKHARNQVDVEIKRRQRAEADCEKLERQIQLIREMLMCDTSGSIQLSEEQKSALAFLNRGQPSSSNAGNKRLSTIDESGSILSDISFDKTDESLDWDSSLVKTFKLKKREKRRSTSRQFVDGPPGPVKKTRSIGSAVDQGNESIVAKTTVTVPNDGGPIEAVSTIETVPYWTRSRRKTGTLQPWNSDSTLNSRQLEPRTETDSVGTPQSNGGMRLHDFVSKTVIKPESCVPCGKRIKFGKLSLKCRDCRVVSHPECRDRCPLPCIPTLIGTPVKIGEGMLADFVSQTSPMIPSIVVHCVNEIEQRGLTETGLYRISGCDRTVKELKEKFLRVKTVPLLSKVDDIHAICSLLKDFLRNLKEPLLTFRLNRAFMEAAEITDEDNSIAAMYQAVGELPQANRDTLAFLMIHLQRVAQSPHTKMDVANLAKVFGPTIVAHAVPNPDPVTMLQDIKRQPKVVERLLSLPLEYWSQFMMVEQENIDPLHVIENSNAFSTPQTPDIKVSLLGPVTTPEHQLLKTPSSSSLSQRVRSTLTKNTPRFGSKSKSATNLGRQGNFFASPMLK

T3 sequence (P65502 whole entry): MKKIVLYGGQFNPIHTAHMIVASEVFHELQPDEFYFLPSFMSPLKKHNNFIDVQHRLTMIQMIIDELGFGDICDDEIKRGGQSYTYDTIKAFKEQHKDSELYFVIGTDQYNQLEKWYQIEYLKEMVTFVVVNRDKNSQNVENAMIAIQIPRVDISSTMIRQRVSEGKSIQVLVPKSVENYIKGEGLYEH
T1 sequence (P63165 whole entry): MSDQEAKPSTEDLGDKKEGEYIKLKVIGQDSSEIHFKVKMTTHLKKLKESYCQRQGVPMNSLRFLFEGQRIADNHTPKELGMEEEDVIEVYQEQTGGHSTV
Chain of Beta-galactosidase (Q8VNN2 whole entry): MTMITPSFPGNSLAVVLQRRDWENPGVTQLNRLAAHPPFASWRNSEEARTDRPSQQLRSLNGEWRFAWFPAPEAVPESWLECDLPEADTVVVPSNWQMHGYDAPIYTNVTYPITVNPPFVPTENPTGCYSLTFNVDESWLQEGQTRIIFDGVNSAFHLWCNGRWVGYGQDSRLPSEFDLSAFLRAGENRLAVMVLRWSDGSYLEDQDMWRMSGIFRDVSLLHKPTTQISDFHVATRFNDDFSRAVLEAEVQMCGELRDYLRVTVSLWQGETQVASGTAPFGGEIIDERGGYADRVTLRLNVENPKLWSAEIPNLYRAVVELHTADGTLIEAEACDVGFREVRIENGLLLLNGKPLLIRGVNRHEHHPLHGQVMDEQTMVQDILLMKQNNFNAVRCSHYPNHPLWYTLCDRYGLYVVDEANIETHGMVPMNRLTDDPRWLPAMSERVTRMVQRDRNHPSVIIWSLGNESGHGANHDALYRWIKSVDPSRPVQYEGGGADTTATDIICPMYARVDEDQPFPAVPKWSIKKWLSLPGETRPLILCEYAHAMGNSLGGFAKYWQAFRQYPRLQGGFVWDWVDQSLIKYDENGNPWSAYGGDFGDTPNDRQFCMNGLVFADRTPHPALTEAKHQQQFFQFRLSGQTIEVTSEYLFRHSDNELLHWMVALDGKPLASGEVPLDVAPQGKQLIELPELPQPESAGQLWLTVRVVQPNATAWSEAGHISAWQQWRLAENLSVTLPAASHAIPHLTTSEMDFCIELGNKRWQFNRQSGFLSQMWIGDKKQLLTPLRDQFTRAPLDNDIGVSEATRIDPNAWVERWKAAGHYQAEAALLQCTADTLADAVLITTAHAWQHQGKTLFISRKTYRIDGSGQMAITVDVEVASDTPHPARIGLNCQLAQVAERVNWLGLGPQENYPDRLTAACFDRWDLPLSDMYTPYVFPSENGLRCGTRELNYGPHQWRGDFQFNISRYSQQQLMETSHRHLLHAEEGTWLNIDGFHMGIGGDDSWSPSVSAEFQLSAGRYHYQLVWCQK
Chain of Melanocortin receptor 4 (P32245 whole entry): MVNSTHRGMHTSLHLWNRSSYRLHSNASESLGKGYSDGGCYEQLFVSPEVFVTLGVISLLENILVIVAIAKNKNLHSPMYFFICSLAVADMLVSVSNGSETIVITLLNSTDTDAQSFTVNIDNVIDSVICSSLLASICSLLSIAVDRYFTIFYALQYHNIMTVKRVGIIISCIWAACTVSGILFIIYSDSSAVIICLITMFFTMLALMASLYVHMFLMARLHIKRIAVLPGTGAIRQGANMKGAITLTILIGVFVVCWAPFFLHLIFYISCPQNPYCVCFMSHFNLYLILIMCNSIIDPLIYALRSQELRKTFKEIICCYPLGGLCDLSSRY
Chain of Nonstructural protein 1 (Q194T2 whole entry): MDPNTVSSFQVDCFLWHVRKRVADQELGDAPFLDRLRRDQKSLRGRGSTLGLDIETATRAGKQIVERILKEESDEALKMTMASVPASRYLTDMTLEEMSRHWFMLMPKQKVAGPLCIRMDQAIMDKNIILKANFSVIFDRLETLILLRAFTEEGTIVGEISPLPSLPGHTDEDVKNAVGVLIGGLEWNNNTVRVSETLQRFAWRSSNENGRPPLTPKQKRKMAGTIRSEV

O=C(CSc1nnc(SCc2ccccc2)s1)N/N=C/c1c[nH]c2ccccc12
IC50 [1]: > 66.6 µM (inactive) | IC50 [2]: 10.4 µM (active)

CO[C@H](CN(C)S(=O)(=O)c1ccc(Cl)cc1)[C@@H](C)CN([C@@H](C)CO)S(=O)(=O)c1cccc(Cl)c1
AC50 [3]: 2.93 µM (active) | AC50 [4]: 39.7 µM (active) | AC50 [5]: 5.98 µM (active) | AC50 [6]: 25.1 µM (active)

O=NN1C(c2ccccc2)CNC(=O)CC1c1ccccc1 (centres undefined)
GI50 [7]: 22.8 µM (inactive) | GI50 [8]: 39.2 µM (inactive) | GI50 [9]: 21.8 µM (inactive)

COc1cc(NS(=O)(=O)c2ccc(NC(=S)NC(=O)C3CCCC3)cc2)nc(OC)n1
EC50 [10]: > 40 µM (inactive) | IC50 [11]: > 40 µM (not active)

Cc1nn(CCC(=O)NNC(S)=NCC(C)C)c(C)c1Br
EC50 [10]: 32.1 µM (active) | IC50 [11]: 15.9 µM (active)

COC(=O)c1ccc(OCC(=O)Nc2nn(-c3ccccc3)nc2C(N)=O)cc1
IC50 [1]: > 66.6 µM (inactive) | IC50 [2]: 3.99 µM (active)

CCOc1ccc2c(ccc(/C=C/c3cc(C)c4cccnc4c3O)[n+]2C)c1
IC50 [12]: 0.676 µM (active) | AC50 [13]: 0.276 µM (active) | CC50 [14]: 13.1 µM (active) | IC50 [15]: > 2.39 µM (active) | IC50 [16]: > 64.5 µM (inactive) | IC50 [17]: 8.71 µM (active) | IC50 [18]: 11.7 µM (active) | CC50 [19]: 95.9 µM (active) | IC50 [20]: 34.5 µM (active)

CS(=O)(=O)OCCCCOS(C)(=O)=O [BUSULFAN]
GI50 [7]: 109 µM (inactive) | GI50 [8]: 215 µM (inactive) | GI50 [9]: 117 µM (inactive)

COc1ccc(NS(=O)(=O)c2ccc(NC(=S)NC(=O)/C=C/c3ccccc3)cc2)nn1
IC50 [17]: 6.28 µM (active) | IC50 [18]: 40.6 µM (active)
